Values of other authors, collected in patent publication EP1543827A1, “EMULSION OF PERFLUORORGANIC COMPOUNDS EXHIBITING GAS-TRANSPORT PROPERTIES, A SURFACE-ACTIVE AGENT FOR SAID EMULSION AND METHOD FOR THE PRODUCTION THEREOF” (Obshestvo C Ogranichennoi Otvetstvennostiu Accent, priority 2002, dated 2004).

Settings: in vivo

period of PFOC semi-clearance out of the organism [days] | Compound
65 | FC(F)(F)C1(F)C(F)(F)C(F)(F)C(F)(N2C(F)(F)C(F)(F)C(F)(F)C(F)(F)C2(F)F)C(F)(F)C1(F)F (centres unmarked) [PMCP, perfluoro-n-methylcyclohexylpiperidine]
7 | perfluordecalin [PFD]
